Tests used:
[1] = system: methicillin resistance Staphylococcus aureus (MRSA); assay: ultrasensitive radial diffusion assay, MRSA; format: cell-based; parameters: antimicrobial activity according to pH, MRSA / antimicrobial activity according to NaCl, MRSA: unit not given here; settings: for antimicrobial activity to MRSA strain (diameter of clear zone): according to the concentration of the peptides, FIG. 9A, 9C
Protocol: (§1) In order to measure the antimicrobial activity of acid extracts of Halocynthia aurantium obtained in the above Example <1-1>, the present inventors performed ultrasensitive radial diffusion assay. Particularly, analyzed 150 fractions eluted in the above Example <1-1> 5 times each. Took 100 μl from 2 ml of each fraction and concentrated thereof with a vacuum centrifugation (Centra Evaporator, Bioneer, Korea), which was suspended in 5 μl of 0.01% acetic acid solution. Meanwhile, prepared agarose plate including wells 3 mm in diameter by adding methicillin resistance Staphylococcus aureus (referred as “MRSA” hereinafter, Seoul Women's University, Korea CCARM3001) of mid-logarithmic phase to gel comprising sterilized citrate phosphate buffer (9 mM sodium phosphate, 1 mM sodium citrate, pH 7.4), 1% (w/v) type 1 agarose (low electroendosmosis agarose) (A 6013, Sigma) and 3% tryptic soy broth (TSB, Difco, Detroit, Mich., USA). Loaded the above fractions onto the wells of agarose plate containing the above bacteria. Reacted thereof for 3 hours to make the peptides spread into the agarose gel. Added 10 ml of overnutrition medium comprising 6% TSB and 1% agarose gel thereto. Cultured the above plate for overnight until the colonies of the above bacteria were formed. Confirmed the antimicrobial activity of the loaded peptide by measuring the diameter of clearing zone formed around the loaded peptide fraction.
(§2) The present inventors performed ultra-sensitive radical diffusion assay with synthetic peptides prepared in the above Example <2-2>. Particularly, measured antimicrobial activity of each 15Hc, di-15Hc, 18Hc, di-18Hc, halocidin, magainin 1 (Sigma) (control group) and buforin 2 (Sigma) (comparative group) against MRSA and multi drug resistance Pseudomonas aeruginosa (referred as “MDRPA” hereinafter)(Seoul Women's University CCARM2002) according to the concentration of the peptides.
(§3) Particularly, adjusted the pH of media to 7.4, 6.5 and 5.5 respectively by adding HCl, which was checked with a pH meter, and performed radical diffusion assay with the same method as the above Example 1 to investigate the antimicrobial activity to MRSA and Enterococcus faecalis.
(§4) Particularly, changed the basic condition of media by adding 100 mM NaCl, 150 mM NaCl and 200 mM NaCl respectively, and investigated the antimicrobial activity to MRSA and Enterococcus faecalis by radical diffusion assay.

Enterococcus faecalis = assay: radial diffusion assay, Enterococcus faecalis; format: cell-based; parameters: unit not given here
Protocol: as §1, §3, §4

[2] = system: multi drug resistance Pseudomonas aeruginosa (MDRPA); assay: ultra-sensitive radial diffusion assay, MDRPA; format: cell-based; settings: according to the concentration of the peptides; FIG. 9B, 9D
Protocol: as §1, §2

MRSA strain = assay: colony counting assay, MRSA; format: cell-based, Staphylococcus aureus; settings: peptide 5 μg/ml, 5 and 15 minutes; FIG. 10
Protocol: (§5) In order to investigate antimicrobial activity of halocidin, the present inventors performed colony counting assay. Particularly, adjusted the final concentration of the peptide to 5 μg/ml by mixing the peptide and MRSA strain or MDRPA strain of mid-log phase in sterilized 10 mM sodium phosphate buffer (pH 7.4) containing 0.3 mg/id of TSB powder. Adjusted the final volume of the above mixture to 100 μl, and then let it be pre-reacted in a 37° C. shaking water bath for 5 and 15 minutes each. Collected 20 μl of pre-reacted solution and loaded thereof onto 1.5% bacto-agar plate (Difco). Induced reaction for overnight and counted the number of formed colonies on the above plate, from which measured the antimicrobial activity. Used magainin 1 and buforin 2 for comparative group, and 0.01% acetic acid for control group.

MDRPA strain = assay: colony counting assay, MDRPA; format: cell-based, Pseudomonas aeruginosa; settings: peptide 5 μg/ml, 5 and 15 minutes; FIG. 10
Protocol: as §5

human erythrocytes = format: cell-based
Protocol: In order to investigate […] of halocidin, the present inventors performed hemolytic assay. Particularly, mixed 20 μl of peptide diluted to 100, 50, 25, 12.5, 6.25, 3.125 μg/ml and 180 μl of 2.5% (V/V) human erythrocytes in PBS. Used melittin (Sigma) and clavanin AK, a congener in which clavanin A residue was substituted, for comparative group, and 0.01% acetic acid for control group. After reacting the mixture at 37° C. for 30 minutes, added 600 μl of PBS into each tube. Centrifuged the solution at 10,000 g for 3 minutes and separated supernatants. Measured OD at 540 nm and calculated the hemolytic activity (%) according to the below <Mathematical Formula 1>.

[3] = system: Gram negative bacteria such as Pseudomonas aeruginosa, Salmonella cholerasuis, Salmonella parotyphi A, E. coli K112 and E. coli DH5α; assay: radial diffusion assay, Gram-negative bacteria; format: cell-based; settings: FIG. 12-14
[4] = system: Gram-positive bacteria such as Staphylococcus aureus, Micrococcus luteus, Enterococcus faecalis, Bacillus subtilus and MRSA; assay: radial diffusion assay, Gram-positive bacteria; format: cell-based; settings: FIG. 15-17
Protocol: In order to measure the antimicrobial activity of acid extracts of Halocynthia aurantium obtained in the above Example <1-1>, the present inventors performed ultrasensitive radial diffusion assay. Particularly, analyzed 150 fractions eluted in the above Example <1-1> 5 times each. Took 100 μl from 2 ml of each fraction and concentrated thereof with a vacuum centrifugation (Centra Evaporator, Bioneer, Korea), which was suspended in 5 μl of 0.01% acetic acid solution. Meanwhile, prepared agarose plate including wells 3 mm in diameter by adding methicillin resistance Staphylococcus aureus (referred as “MRSA” hereinafter, Seoul Women's University, Korea CCARM3001) of mid-logarithmic phase to gel comprising sterilized citrate phosphate buffer (9 mM sodium phosphate, 1 mM sodium citrate, pH 7.4), 1% (w/v) type 1 agarose (low electroendosmosis agarose) (A 6013, Sigma) and 3% tryptic soy broth (TSB, Difco, Detroit, Mich., USA). Loaded the above fractions onto the wells of agarose plate containing the above bacteria. Reacted thereof for 3 hours to make the peptides spread into the agarose gel. Added 10 ml of overnutrition medium comprising 6% TSB and 1% agarose gel thereto. Cultured the above plate for overnight until the colonies of the above bacteria were formed. […]

Substance | antimicrobial activity according to NaCl, MRSA ([1]; NaCl 100 mM) | antimicrobial activity according to NaCl, MRSA ([1]; NaCl 150 mM) | antimicrobial activity according to NaCl, MRSA ([1]; NaCl 200 mM) | antimicrobial activity according to pH, MRSA ([1]; pH = 5.5) | antimicrobial activity according to pH, MRSA ([1]; pH = 6.5) | antimicrobial activity according to pH, MRSA ([1]; pH = 7.4) | antimicrobial activity according to NaCl, Enterococcus faecalis (Enterococcus faecalis; NaCl 100 mM) | antimicrobial activity according to NaCl, Enterococcus faecalis (Enterococcus faecalis; NaCl 150 mM) | antimicrobial activity according to NaCl, Enterococcus faecalis (Enterococcus faecalis; NaCl 200 mM) | antimicrobial activity according to pH, Enterococcus faecalis (Enterococcus faecalis; pH = 5.5) | antimicrobial activity according to pH, Enterococcus faecalis (Enterococcus faecalis; pH = 6.5) | antimicrobial activity according to pH, Enterococcus faecalis (Enterococcus faecalis; pH = 7.4) | antimicrobial activity to MRSA strain (diameter of clear zone) [1] | antimicrobial activity to MDRPA strain (diameter of clear zone) [2] | antimicrobial activity by colony counting, MRSA (MRSA strain) | antimicrobial activity by colony counting, MDRPA (MDRPA strain) | hemolytic activity (human erythrocytes) [%] | antimicrobial activity to Gram-negative bacteria [3] | antimicrobial activity to Gram-positive bacteria [4]
KWLNALLHHGLNCAKGVLA (PEPTIDE (1)..(19) 19mer of halocydin; listed as Halocynthia aurantium) [K(18 + 1)Hc, ID; No 9] | 16-32 | 16-32 | 32-64 | 32-64 | 16-32 | 16-32 | 16-32 | 16-32 | 16-32 | 16-32 | 16-32 | 8-16 |  |  |  |  |  |  | 
WLNALLHHGLNCAKGVLA (PEPTIDE (1)..(1) 18mer of halocydin; listed as Halocynthia aurantium) [Peptide 18Hc, ID; No 1] |  |  |  |  |  |  |  |  |  |  |  |  | higher antimicrobial activity than buforin 2 | higher antimicrobial activity than comparative group | high antimicrobial activity | high antimicrobial activity | 9 | hardly showed or had minimum antimicrobial activity | low antimicrobial activity
Secrofin A | >64 | >64 | >64 | >64 | >64 | >64 | >64 | >64 | >64 | >64 | >64 | >64 |  |  |  |  |  |  | 
Buforin 2 | >64 | >64 | >64 | >64 | >64 | >64 | >64 | >64 | >64 | >64 | >64 | >64 | proved to have antimicrobial activity | proved to have antimicrobial activity |  |  |  |  | 
Magainin 1 (GIGKFLHSAGKFGKAFVGEIMKS; Magainin-1; UniProt P11006 37-59, looked up) [magainin 1 (Sigma), control/comparative antimicrobial peptide] | >64 | >64 | >64 | >64 | >64 | >64 | >64 | >64 | >64 | >64 | >64 | >64 |  | proved to have antimicrobial activity |  |  |  |  | 
15Hc: 15-amino-acid monomer of halocidin; 18Hc lacking three N-terminal amino acids, SEQ. ID. No 2 (WLNALLHHGLNCAKG; PEPTIDE (1)..(1) 15mer of halocydin; listed as Halocynthia aurantium) [Peptide 15Hc, 15-amino-acid monomer of halocidin; ID; No 2] |  |  |  |  |  |  |  |  |  |  |  |  |  | higher antimicrobial activity than comparative group |  |  | 0 | hardly showed or had minimum antimicrobial activity | low antimicrobial activity

Reference: patent US7504380B2, “Antimicrobial peptide isolated from halocynthia aurantium” (Industry-Academic Cooperation Foundation, Hoseo University, priority 2002, dated 2009)
